From ChEMBL document CHEMBL3727356, “Therapeutic compounds and compositions” (2014)

Assays:
Pyruvate kinase PKLR [1] = molecular target: Pyruvate kinase PKLR (Homo sapiens, UniProt P30613, R532W); test: Activation of PKR R532W mutant (unknown origin) incubated for 60 mins in presence of ADP, PEP and NADH by Spectraax microplate reader based assay
Pyruvate kinase PKLR [2] = molecular target: T1, Pyruvate kinase PKLR (Homo sapiens, UniProt P30613); test: Activation of wild type PKR (unknown origin) by cell based assay
Pyruvate kinase PKLR [3] = molecular target: Pyruvate kinase PKLR (Homo sapiens, UniProt P30613, R510Q); test: Activation of PKR R510Q mutant (unknown origin) incubated for 60 mins in presence of ADP, PEP and NADH by Spectraax microplate reader based assay
Pyruvate kinase PKLR [4] = molecular target: T1, Pyruvate kinase PKLR; test: Activation of wild type PKR (unknown origin) incubated for 60 mins in presence of ADP, PEP and NADH by Spectraax microplate reader based assay

T1 sequence (P30613 whole entry): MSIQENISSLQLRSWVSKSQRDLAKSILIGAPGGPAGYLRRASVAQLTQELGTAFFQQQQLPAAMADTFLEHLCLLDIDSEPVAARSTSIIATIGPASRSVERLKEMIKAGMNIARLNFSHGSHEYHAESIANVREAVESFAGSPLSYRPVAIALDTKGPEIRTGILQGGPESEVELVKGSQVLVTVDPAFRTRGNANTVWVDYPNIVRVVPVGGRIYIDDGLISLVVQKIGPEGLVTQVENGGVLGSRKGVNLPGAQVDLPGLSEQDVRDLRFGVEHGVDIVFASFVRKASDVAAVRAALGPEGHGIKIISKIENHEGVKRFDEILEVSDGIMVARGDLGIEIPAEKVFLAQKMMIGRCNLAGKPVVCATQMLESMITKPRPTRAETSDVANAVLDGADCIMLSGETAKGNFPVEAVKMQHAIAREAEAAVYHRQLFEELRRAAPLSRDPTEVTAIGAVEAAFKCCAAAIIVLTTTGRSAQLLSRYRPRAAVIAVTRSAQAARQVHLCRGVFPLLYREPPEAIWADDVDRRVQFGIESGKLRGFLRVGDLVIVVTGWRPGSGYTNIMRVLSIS
Chain of Pyruvate kinase PKLR (Homo sapiens, UniProt P30613, R510Q) (P30613 whole entry R510Q): as the sequence (P30613 whole entry) above, with R510Q counted along it
Chain of Pyruvate kinase PKLR (Homo sapiens, UniProt P30613, R532W) (P30613 whole entry R532W): as the sequence (P30613 whole entry) above, with R532W counted along it

Row | AC50 (Pyruvate kinase PKLR [1]) | AC50 (Pyruvate kinase PKLR [2]) | AC50 (Pyruvate kinase PKLR [3]) | AC50 (Pyruvate kinase PKLR [4]) | Compound
1 | < 100 nM | < 100 nM | < 100 nM | < 100 nM | O=C(c1ccc(NS(=O)(=O)c2cccc3cccnc23)cc1)N1CCC(O)(c2ccccc2C(F)F)CC1
2 | < 100 nM | < 100 nM | < 100 nM | < 100 nM | O=C(c1ccc(NS(=O)(=O)c2cccc3cccnc23)cc1)N1CCC(O)(c2cccc(F)c2F)CC1
3 | < 100 nM | < 100 nM | < 100 nM | < 100 nM | Cc1ccccc1CC1(O)CCN(C(=O)c2ccc(NS(=O)(=O)c3cccc4cccnc34)cc2)CC1
4 | < 100 nM | < 100 nM | < 100 nM | < 100 nM | O=C(c1ccc(NS(=O)(=O)c2cccc3cccnc23)cc1)N1CCC(O)(c2ccccc2C(F)(F)F)CC1
5 | < 100 nM | < 100 nM | < 100 nM | < 100 nM | O=C(c1ccc(NS(=O)(=O)c2cccc3cccnc23)cc1)N1CCC(O)(Cc2c(F)cccc2F)CC1
6 | < 100 nM | < 100 nM | < 100 nM | < 100 nM | O=C(c1ccc(NS(=O)(=O)c2cccc3cccnc23)cc1)N1CCC(O)(c2ccc(F)c(Br)n2)CC1
7 | < 100 nM | < 100 nM | < 100 nM | < 100 nM | O=C(c1ccc(NS(=O)(=O)c2cccc3cccnc23)cc1)N1CCC(O)(Cc2cccc(F)c2)CC1
8 | < 100 nM | < 100 nM | < 100 nM | < 100 nM | O=C(c1ccc(NS(=O)(=O)c2cccc3cccnc23)cc1)N1CCC(O)(c2ccc(F)cc2Cl)CC1
9 | < 100 nM | < 100 nM | < 100 nM | < 100 nM | Cc1ccccc1C1(O)CCN(C(=O)c2ccc(NS(=O)(=O)c3cccc4cccnc34)cc2)CC1
10 | < 100 nM | < 100 nM | < 100 nM | < 100 nM | O=C(c1ccc(NS(=O)(=O)c2cccc3cccnc23)cc1)N1CCC(O)(c2cccc(F)c2Cl)CC1
11 | < 100 nM | < 100 nM | < 100 nM | < 100 nM | O=C(c1ccc(NS(=O)(=O)c2cccc3cccnc23)cc1)N1CCC(O)(Cc2ccccc2)CC1
12 | < 100 nM | < 100 nM | < 100 nM | < 100 nM | O=C(c1ccc(NS(=O)(=O)c2cccc3cccnc23)cc1)N1CCC(O)(Cc2ccccc2F)CC1
13 | < 100 nM | < 100 nM | < 100 nM | < 100 nM | Cc1nc(F)ccc1C1(O)CCN(C(=O)c2ccc(NS(=O)(=O)c3cccc4cccnc34)cc2)CC1
14 | < 100 nM | < 100 nM | < 100 nM | < 100 nM | O=C(c1ccc(NS(=O)(=O)c2cccc3cccnc23)cc1)N1CCC(O)(c2ccccc2Cl)CC1
15 | < 100 nM | < 100 nM | < 100 nM | < 100 nM | CCc1ccccc1C1(O)CCN(C(=O)c2ccc(NS(=O)(=O)c3cccc4cccnc34)cc2)CC1
16 | < 100 nM | < 100 nM | < 100 nM | < 100 nM | Cc1cc(F)ccc1C1(O)CCN(C(=O)c2ccc(NS(=O)(=O)c3cccc4cccnc34)cc2)CC1

The next lines start with the compound.

Row | Compound | AC50 (Pyruvate kinase PKLR [1]) | AC50 (Pyruvate kinase PKLR [2]) | AC50 (Pyruvate kinase PKLR [3]) | AC50 (Pyruvate kinase PKLR [4])
17 | O=C(c1ccc(NS(=O)(=O)c2cccc3scnc23)cc1)N1CCC(O)(/C=C/CC(F)(F)F)CC1 | < 100 nM | – | < 100 nM | < 100 nM
18 | CC1(O)CCC(C2(O)CCN(C(=O)c3ccc(NS(=O)(=O)c4cccc5scnc45)cc3)CC2)CC1 (configuration not stated) | ≥ 1010 nM | – | ≥ 1010 nM | ≤ 1000 nM
19 | CC(C)(C)CC1(O)CCN(C(=O)c2ccc(NS(=O)(=O)c3cccc4cccnc34)cc2)CC1 | < 100 nM | < 100 nM | < 100 nM | < 100 nM
20 | O=C(c1ccc(NS(=O)(=O)c2cccc3cccnc23)cc1)N1CCC(O)(CC2CCC2)CC1 | < 100 nM | < 100 nM | < 100 nM | < 100 nM
21 | CC(C)CC1(O)CCN(C(=O)c2ccc(NS(=O)(=O)Cc3ccccn3)cc2)CC1 | > 10000 nM | – | > 10000 nM | > 10000 nM
22 | O=C(c1ccc(NS(=O)(=O)c2cccc3cccnc23)cc1OC(F)(F)F)N1CCC(O)(c2ccccc2Cl)CC1 | < 100 nM | < 100 nM | < 100 nM | < 100 nM
23 | CC(CC1(O)CCN(C(=O)c2ccc(NS(=O)(=O)c3cccc4c(O)ncnc34)cc2)CC1)C(F)(F)F (configuration not stated) | < 100 nM | – | < 100 nM | < 100 nM
24 | Cc1cc(C(=O)N2CCC(O)(c3ccccc3Cl)CC2)ccc1NS(=O)(=O)c1cccc2nccnc12 | < 100 nM | < 100 nM | < 100 nM | < 100 nM
25 | CC(C)CC1(C=O)CCN(C(=O)c2ccc(NS(=O)(=O)c3cccc4cccnc34)cc2)CC1 | < 100 nM | < 100 nM | < 100 nM | < 100 nM
26 | O=C(c1ccc(NS(=O)(=O)c2cccc3cccnc23)cc1F)N1CCC(O)(Cc2ccccc2)CC1 | < 100 nM | < 100 nM | < 100 nM | < 100 nM
27 | O=C(c1ccc(NS(=O)(=O)c2cccc3[nH]cnc23)cc1)N1CCC(O)(c2ccccc2Cl)CC1 | ≥ 1010 nM | – | > 10000 nM | ≥ 1010 nM
28 | O=C(c1ccc(NS(=O)(=O)c2cccc3cccnc23)cc1)N1CCC(C(=O)O)(c2ccccc2)CC1 | > 10000 nM | – | > 10000 nM | > 10000 nM
29 | CC1(O)CCC(C2(O)CCN(C(=O)c3ccc(NS(=O)(=O)c4cccc5nccnc45)cc3)CC2)CC1 (configuration not stated) | ≤ 1000 nM | – | ≤ 1000 nM | ≤ 1000 nM
30 | O=C(c1ccc(NS(=O)(=O)c2cccc3nccnc23)cc1)N1CCC(O)(c2ncc(Cl)s2)CC1 | ≤ 1000 nM | – | ≥ 1010 nM | ≤ 1000 nM
31 | CC(F)(F)CCC1(O)CCN(C(=O)c2ccc(NS(=O)(=O)c3cc(F)cc4sc(N)nc34)cc2)CC1 | < 100 nM | – | < 100 nM | < 100 nM
32 | CNc1nc2c(S(=O)(=O)Nc3ccc(C(=O)N4CCC(O)(c5ccccc5Cl)CC4)cc3)cccc2s1 | < 100 nM | – | < 100 nM | < 100 nM
33 | O=C(c1ccc(NS(=O)(=O)Cc2ccccn2)cc1)N1CCC(O)(c2ccccc2Cl)CC1 | > 10000 nM | – | > 10000 nM | > 10000 nM
34 | CCS(=O)(=O)CC1(O)CCN(C(=O)c2ccc(NS(=O)(=O)c3cccc4nccnc34)cc2)CC1 | ≥ 1010 nM | – | > 10000 nM | ≥ 1010 nM
35 | O=C(c1ccc(NS(=O)(=O)c2cccc3c2OCC3)cc1)N1CCC(O)(c2ccccc2Cl)CC1 | ≥ 1010 nM | – | > 10000 nM | ≥ 1010 nM

Row | Compound | AC50 (Pyruvate kinase PKLR [1]) | AC50 (Pyruvate kinase PKLR [2]) | AC50 (Pyruvate kinase PKLR [3]) | AC50 (Pyruvate kinase PKLR [4])
36 | O=C(c1ccc(NS(=O)(=O)c2c[nH]c3cccnc23)cc1)N1CCC(O)(c2ccccc2Cl)CC1 | > 10000 nM | – | > 10000 nM | > 10000 nM
37 | O=C(c1ccc(NS(=O)(=O)c2cccc3c2OCCC3)cc1)N1CCC(O)(c2ccccc2Cl)CC1 | < 100 nM | < 100 nM | < 100 nM | < 100 nM
38 | CC(C)CC1(O)CCN(C(=O)c2ccc(NS(=O)(=O)c3cccc4c3OCC4)cc2)CC1 | ≥ 1010 nM | – | ≥ 1010 nM | ≥ 1010 nM
39 | CC1(CC2(O)CCN(C(=O)c3ccc(NS(=O)(=O)c4cccc5cccnc45)cc3)CC2)CC1 | < 100 nM | < 100 nM | < 100 nM | < 100 nM
40 | O=C(c1ccc(NS(=O)(=O)c2cccc3scnc23)cc1)N1CCC(O)(Cc2ccccc2C(F)(F)F)CC1 | < 100 nM | < 100 nM | < 100 nM | < 100 nM
41 | CC(C)(C)CC1(O)CCN(C(=O)c2ccc(NS(=O)(=O)c3cccc4nccnc34)cc2)CC1 | < 100 nM | < 100 nM | < 100 nM | < 100 nM
42 | Nc1nc2c(S(=O)(=O)Nc3ccc(C(=O)N4CCC(O)(/C=C/CC(F)(F)F)CC4)cc3)cccc2s1 | – | < 100 nM | < 100 nM | < 100 nM
43 | O=C(c1ccc(NS(=O)(=O)c2cccc3nccnc23)cc1)N1CCC(O)(Cc2ccccc2C(F)(F)F)CC1 | < 100 nM | < 100 nM | < 100 nM | < 100 nM
44 | O=C(c1ccc(NS(=O)(=O)c2cccc3cc(F)cnc23)cc1)N1CCC(O)(Cc2ccccc2)CC1 | < 100 nM | < 100 nM | < 100 nM | < 100 nM
45 | CC(C)CC1(O)CCN(C(=O)c2ccc(NS(=O)(=O)c3cccc4ncc(O)nc34)cc2)CC1 | > 10000 nM | – | > 10000 nM | > 10000 nM
46 | Cc1cc(C(=O)N2CCC(O)(Cc3ccccc3)CC2)ccc1NS(=O)(=O)c1cccc2cccnc12 | < 100 nM | < 100 nM | < 100 nM | < 100 nM
47 | Cc1cc(C(=O)N2CCC(O)(c3ccccc3Cl)CC2)ccc1NS(=O)(=O)c1cccc2cccnc12 | < 100 nM | < 100 nM | < 100 nM | < 100 nM
48 | CC(C)CC1(O)CCN(C(=O)c2ccc(NS(=O)(=O)c3cccc4[nH]cnc34)cc2)CC1 | > 10000 nM | – | > 10000 nM | > 10000 nM
49 | Cn1ccc(C2(O)CCN(C(=O)c3ccc(NS(=O)(=O)c4cccc5scnc45)cc3)CC2)n1 | > 10000 nM | – | > 10000 nM | > 10000 nM
50 | CC(C)(C)CC1(O)CCN(C(=O)c2ccc(NS(=O)(=O)c3cccc4scnc34)cc2)CC1 | < 100 nM | < 100 nM | < 100 nM | < 100 nM
51 | O=C(c1ccc(NS(=O)(=O)n2ccc3cccnc32)cc1)N1CCC(O)(c2ccccc2Cl)CC1 | > 10000 nM | – | > 10000 nM | > 10000 nM
52 | COc1ccccc1CC1(O)CCN(C(=O)c2ccc(NS(=O)(=O)c3cccc4cccnc34)cc2)CC1 | < 100 nM | < 100 nM | < 100 nM | < 100 nM
53 | O=C(c1ccc(NS(=O)(=O)c2cccc3cccnc23)cc1)N1CCC(O)(Cc2ccccc2C(F)(F)F)CC1 | < 100 nM | < 100 nM | < 100 nM | < 100 nM
